Data as given in PMC4116524, “A virtual screen identified C96 as a novel inhibitor of phosphatidylinositol 3-kinase that displays potent preclinical activity against multiple myeloma in vitro and in vivo” (Oncotarget, 2014).
“And” between values parts separate entries of the source, which are not always exact repeats. Equal entries are not always repeated.

Assays:
Assay type in all cases: cell-based
[1] = tested on: IGF-1R phosphorylation in LP1 and JJN3 cells; experiment: IGF-1-induced IGF-1R phosphorylation, immunoblotting; details: 100 μM, 2 hrs, IGF-1 15 min
Procedure: To elucidate this specificity, we first evaluated its effects on IGF-1R because IGF-1R as a receptor tyrosine kinase activates PI3K in the presence of IGF-1. To exclude the potential effects of C96 on IGF-1 signaling, LP1 and JJN3 cells were starved overnight followed by C96 or S14161 treatment for 2 hrs, and IGF-1 stimulation for 15 min. As expected, IGF-1 triggered AKT phosphorylation but it was suppressed by both C96 and the proven PI3K inhibitor S14161 without affecting total AKT expression (Figure 3A). […] Next, we evaluated other kinases including non-receptor kinase c-Src and a PI3K parallel kinase ERK which transduces external cellular signals. Both LP1 and JJN3 cells were treated with C96 at increasing concentrations that inhibited AKT and mTOR activation (Figure 2C).
Figure 3 C96 inhibits AKT but not IGF-1R, ERK or c-Src kinase activation (A) LP1 and JJN3 cells were starved overnight, then treated with 100 (μM of C96 or S14161 for 2 hrs, followed by IGF-1 (100 ng/mL) for 15 min. After incubation, cells were harvested and the expression of p-AKT, p-IGF-1R, total AKT (T-AKT), and IGF-1R proteins were detected by immunoblotting. (B) LP1 and JJN3 were treated with C96 at indicated concentrations for 24 hrs followed by immunoblotting assay for the expression of p-Src, c-Src, p-ERK, and ERK. GAPDH was used as a loading control. […]

[2] = tested on: KMS11 cells; experiment: Flow cytometric analysis of apoptosis (Annexin V-FITC/PI); details: KMS11, C96 10 μM, 24 hrs; two quadrant values
Procedure: (§1) MM cells treaded with C96 at concentrations from 0 to 20 μM, 24 hrs later, cells were stained with Annexin V-FITC and PI according to the manufacturer's instruction (Sigma, St Louis, MO). Apoptotic cells were measured on a flow cytometer (FACSCalibur, Becton Dickinson) as reported as previously.

[3] = tested on: OPM2 cells; experiment: as above; details: OPM2, C96 10 μM, 24 hrs; two quadrant values
Procedure: as §1

[4] = tested on: RPMI-8226 (8226) cells; experiment: as above; details: 8226, C96 10 μM, 24 hrs; two quadrant values
Procedure: as §1

[5] = tested on: LP1, OPM2 and JJN3 cells; experiment: MM cell growth after starvation/IGF-1 stimulation (MTT); details: 0.5% FBS 12 hrs, IGF-1 100 ng/mL, 24 hrs
From the text: Next, we evaluated the effects of C96 on MM cell growth by measuring viable cells after starvation/IGF-1 stimulation in the presence of C96. As shown in Supplemental Figure 2A, IGF-1 stimulated MM cell growth, but it was suppressed by C96. We also examined the effects of C96 on MM cell migration upon IGF-1 stimulation.
MM cells were dispensed in 96-well plates at a density of 8×10^3 cells per well and treated with increasing concentrations of C96 for 72 hrs, and the growth inhibitory effect of C96 on MM cells was assessed by an MTT assay as reported previously. To show the effect of C96 on cell growth in the presence of growth factor IGF-1, MM cells were first maintained in IMDM media containing 0.5% FBS for 12 hrs, followed by C96 treatment alone or in combination with 100 ng/mL of IGF-1. Cells were then incubated for another 24 hrs, relative cell proliferation was analyzed by an MTT assay.
Supplementary Figure S2: C96 inhibits MM cell proliferation and migration in the presence of IGF-1. […] Cells were then incubated for another 24 hr, cell number was analyzed using MTT staining. […] Cells were loaded onto the upper chamber of a transwell, and the lower chamber was filled with IMDM containing agonist IGF-1.After 6 hrs, cells migrating into the lower chamber were counted using a hemacytometer. […]

O=C1NC(=O)C(=CC=Cc2cccs2)C(=O)N1 [C96, 5-(3-(2-thienyl)-2-propen-1-ylidene)-2,4,6(1H,3H,5H)-pyrimidinetrione]
IGF-1R phosphorylation induced by IGF-1 [1]: not affected | Annexin V/PI flow cytometry quadrant percentages [2]: 4.28% and 1.91% | Annexin V/PI flow cytometry quadrant percentages [3]: 42.12% and 21.89% | Annexin V/PI flow cytometry quadrant percentages [4]: 13.50% and 15.66% | IGF-1 stimulated MM cell growth [5]: suppressed
